From US11427783B2, “Perfuming compositions” (Firmenich SA, priority 2016, dated 2022)

Experiments:
[1] = Odor threshold of perfuming compounds in air
[2] = Volatility of perfuming compounds in air; format: physicochemical
[3] = Log P (n-octanol/water) of perfuming compounds
[4] = physchem; details: n-octanol/water
[5] = Table 5, perfuming compounds having a green note

Row | Structure (SMILES) | Odor Threshold ([1]; Table 4, watery note) | Volatility ([2]; Table 4, watery note) | Volatility [2, 5] | Log P (n-octanol/water) [3, 5] | logP [4] | Odor Threshold ([1]; Table 7, citrus note) | Volatility ([2]; Table 7, citrus note) | Log P (n-octanol/water) ([3]; Table 7, citrus note)
1 | CCCCCCC#CC(=O)OC [METHYL 2-NONYNOATE] | 1.60E−03 μg/l air | 91.76 μg/l air | 91.76 μg/l air | 3.51 | 3.51 |  |  | 
2 | CCCCCC=O [hexanal] |  |  | 68294.85 μg/l air |  | 2 | 1.76E−03 μg/l air | 68294.85 μg/l air | 2.00
3 | CCCCCCCCC=O [nonanal] |  |  | 2777.63 μg/l air |  | 3.42 | 8.14E−03 μg/l air | 2777.63 μg/l air | 3.42
